B1: HNF4a: Hepatocyte Nuclear Factor α (NR2A1), cDNA driver (protein, UniProt P41235 1-474, looked up)
Hepatocyte nuclear factor …: MRLSKTLVDMDMADYSAALDPAYTTLEFENVQVLTMGNDTSPSEGTNLNAPNSLGVSALCAICGDRATGKHYGASSCDGCKGFFRRSVRKNHMYSCRFSRQCVVDKDKRNQCRYCRLKKCFRAGMKKEAVQNERDRISTRRSSYEDSSLPSINALLQAEVLSRQITSPVSGINGDIRAKKIASIADVCESMKEQLLVLVEWAKYIPAFCELPLDDQVALLRAHAGEHLLLGATKRSMVFKDVLLLGNDYIVPRHCPELAEMSRVSIRILDELVLPFQELQIDDNEYAYLKAIIFFDPDAKGLSDPGKIKRLRSQVQVSLEDYINDRQYDSRGRFGELLLLLPTLQSITWQMIEQIQFIKLFGMAKIDNLLQEMLLGGSPSDAPHAHHPLHPHLMQEHMGTNVIVANTMPTHLSNGQMCEWPRPRGQAATPETPQPSPPGGSGSEPYKLLPGAVATIVKPLSAIPQPTITKQEVI

Tests used:
mPer1 promoter = test: NHR-promoter luciferase screen, mPer1 promoter; format: cell-based, mouse; conditions: for Luc. act., normalized to lacZ / Normalized Luc. act., normalized to control: Per1 promoter reporter, co-transfected HR, with or without its ligand; for Normalized Luc. act., normalized to control: relative to control; for luciferase activity normalized to lacZ activity and to a control, mPer1: mPer1 promoter-luciferase, CV-1 cells, NHR +/- ligand, control = 1.00
Protocol: (§1) The use, feasibility, and reproducibility of the functional NHR-promoter screen in a 48-well format have been tested validated. Briefly, there were co-expressed 50 ng of each NHR/NHR homodimer or NHR/RXR heterodimer with 100 ng promoter/luciferase construct and 50 ng of LacZ (as a control for transfection efficiency) in CV-1 cells using Fugene HD (Roche) as a transfection reagent (alternatively or additionally, a CMV-YFP construct can be used as a transfection control). Each of the nuclear hormone receptors that were used in these experiments was cloned into a pcDNA3.1 vector and comprised a C-terminally linked V5H6 tag. Twenty-four hours after transfection, appropriate ligands were added, where applicable, (see Table 5 for various ligands and concentrations and after 48 hrs, samples were assayed for luciferase and LacZ activity. To measure for luciferase activity 15 ul of sample was added to 30 ul of luciferase buffer (20 mM tricine, 1.07 mM MgCarbonate, 2.67 mM MgSulfate, 0.1 mM Naz-EDTA, 5 mM DTT, 5 mM ATP, 0.15 mg/ml CoA, 0.5 mM Luciferin), mixed briefly, and run in a Perkin Elmer Victor 5 luminometer. Thus, the functional NHR-promoter screen was used to observe the transcriptional activity of 29 promoters from various physiological pathways including inflammation, lipid and sugar metabolism, cholesterol transport, xenobiotic metabolism, and circadian rhythm.
(§2) The promoters that facilitate transcription of the indicated gene products that were tested using the protocols described herein are listed in the first row of the table. The nuclear hormone receptors and, where applicable, ligands that were assayed for their transcriptional effects on the promoters are listed in the first column of the table. The data represent the luciferase activity of each sample normalized to both the lacZ activity of that sample and to a control, e.g., no NHR or ligand, as customary in the art. As described previously, these normalizations allow the transcriptional activity of each reporter cell to be compared to other samples.
(§3) Tables 7-40 show the transcriptional effects of the hormone receptors, and, where applicable, ligands (orphan receptors are screened without ligand), on each individual promoter. […] The control data of each table are shown in their last rows.

hPPARg2 promoter = test: NHR-promoter luciferase screen, hPPARg2 promoter; format: cell-based, human; conditions: for Luc. act., normalized to lacZ / Normalized Luc. act., normalized to control: PPARG2 promoter, hormone receptor with or without its ligand; for Normalized Luc. act., normalized to control: relative to control; for Results of assays of transcription factor (+/- ligand) with hPPARg2: Table 6d, luciferase activity relative to control (control = 1.00)
Protocol: as §1, §2, §3

mNPY promoter = test: NHR-promoter luciferase screen, mNPY promoter; format: cell-based, mouse; conditions: for Results of assays of transcription factor (+/- ligand) with mNPY: Table 6d, luciferase activity relative to control (control = 1.00); for Luc. act., normalized to lacZ / Normalized Luc. act., normalized to control: mNPY promoter, HR component with or without ligand; for Normalized Luc. act., normalized to control: relative to control
Protocol: as §1, §2, §3

hPPARg1 promoter = test: NHR-promoter luciferase screen, hPPARg1 promoter; format: cell-based, human; conditions: for Luc. act., normalized to lacZ / Normalized Luc. act., normalized to control: PPARG1 promoter, hormone receptor with or without its ligand; for Normalized Luc. act., normalized to control: relative to control; for Results of assays of transcription factor (+/- ligand) with hPPARg1: Table 6d, luciferase activity relative to control (control = 1.00)
Protocol: as §1, §2, §3

mLeptin promoter = test: NHR-promoter luciferase screen, mLeptin promoter; format: cell-based, mouse; conditions: for Luc. act., normalized to lacZ / Normalized Luc. act., normalized to control: Table 7, mLeptin; for Results of assays of transcription factor (+/- ligand) with mLeptin: Table 6d, luciferase activity relative to control (control = 1.00)
Protocol: as §1, §2, §3

| Molecule | Luc. act., normalized to lacZ (mPer1 promoter) | Normalized Luc. act., normalized to control (mPer1 promoter) | luciferase activity normalized to lacZ activity and to a control, mPer1 (mPer1 promoter) | Luc. act., normalized to lacZ (hPPARg2 promoter) | Normalized Luc. act., normalized to control (hPPARg2 promoter) | Results of assays of transcription factor (+/- ligand) with hPPARg2 (hPPARg2 promoter) | Results of assays of transcription factor (+/- ligand) with mNPY (mNPY promoter) | Luc. act., normalized to lacZ (mNPY promoter) | Normalized Luc. act., normalized to control (mNPY promoter) | Luc. act., normalized to lacZ (hPPARg1 promoter) | Normalized Luc. act., normalized to control (hPPARg1 promoter) | Results of assays of transcription factor (+/- ligand) with hPPARg1 (hPPARg1 promoter) | Luc. act., normalized to lacZ (mLeptin promoter) | Normalized Luc. act., normalized to control (mLeptin promoter) | Results of assays of transcription factor (+/- ligand) with mLeptin (mLeptin promoter) |
| --- | --- | --- | --- | --- | --- | --- | --- | --- | --- | --- | --- | --- | --- | --- | --- |
| RXRa: Retinoic X Receptor α (NR2B1), cDNA driver | 75.8 | 0.5 | 0.53 | 1.3 | 0.7 | 0.67 | 0.95 | 80.0 | 1.0 | 45.6 | 0.7 | 0.66 | 2.3 | 0.8 | 0.77 |
| VDR: Vitamin D Receptor (NR1I1), cDNA driver | 97.1 | 0.7 | 0.67 | 2.1 | 1.0 | 1.03 | 0.79 | 66.7 | 0.8 | 38.1 | 0.6 | 0.55 | 2.6 | 0.9 | 0.90 |
| SF-1: Steroidogenic Factor 1 (NR5A1, SF1), cDNA driver | 536.5 | 3.7 | 3.73 | 2.2 | 1.1 | 1.09 | 2.12 | 177.6 | 2.1 | 124.1 | 1.8 | 1.80 | 4.7 | 1.6 | 1.60 |
| B1 | 93.1 | 0.6 | 0.65 | 2.0 | 1.0 | 1.02 | 0.52 | 43.5 | 0.5 | 34.8 | 0.5 | 0.51 | 2.5 | 0.8 | 0.84 |

From patent US20110263454A1, “Methods of Identifying Functional Characteristics of Promoters, Transcription Modifying Proteins and Transcription Modulating Agents” (Salk Institute for Biological Studies, priority 2008, published 2011)
